Results: patent US20240381872A1, “SUBSTITUTED 2,3-DIHYDRO[1,3]THIAZOLO[4,5-B]PYRIDINES, SALTS THEREOF AND THEIR USE AS HERBICIDALLY ACTIVE SUBSTANCES” (BAYER AKTIENGESELLSCHAFT, priority 2021, published 2024)

What was measured:
Format in all cases: in vivo
[1] = test system: Matricaria inodora (MATIN); assay: Herbicidal pre-emergence action, section A (Table A6); settings: application rate 1280 g/ha, visual grading after ca. 3 weeks vs untreated controls
Outline: (§1)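 Read-out is visual herbicidal effect in percent (100% = plants died, 0% = as control), graded ca. 3 weeks after treatment. Test compounds as WP or EC were applied to covering soil over sown seeds with 0.5% additive, 600 l water per hectare; greenhouse growth.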

[2] = test system: Kochia scoparia (KCHSC); assay: Herbicidal pre-emergence action, section A (Table A4); settings: application rate 320 g/ha, visual grading after ca. 3 weeks vs untreated controls
Outline: as §1

[3] = test system: Abutilon theophrasti (ABUTH); assay: Herbicidal post-emergence action, section B (Table B1); settings: Abutilon theophrasti, 504 h, application rate 1280 g/ha, rated visually after about 3 weeks, read-out: post-emergence activity against ABUTH in %
Method: (§2) Seeds of mono- and dicotyledonous weed plants were placed in plastic pots in sandy loam soil (doubly sown with in each case one species of mono- or dicotyledonous weed plants per pot), covered with soil and cultivated in a greenhouse under controlled growth conditions. 2 to 3 weeks after sowing, the test plants were treated at the one-leaf stage. The compounds of the invention, formulated in the form of wettable powders (WP) or as emulsion concentrates (EC), were applied onto the green parts of the plants as aqueous suspension or emulsion with addition of 0.5% additive at a water application rate of 600 liters per hectare (converted). After the test plants had been kept in the greenhouse under optimum growth conditions for about 3 weeks, the activity of the preparations was rated visually in comparison to untreated controls. For example, 100% activity=the plants have died, 0% activity=like control plants.

[4] = test system: Stellaria media (STEME); assay: Herbicidal post-emergence action, section B (Table B9); settings: visual rating about 3 weeks after treatment vs untreated controls
Outline: (§3)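 Scores are visual % activity relative to untreated plants (0% = like control, 100% = dead), taken about 3 weeks after spraying. Compounds, as WP or EC in water with 0.5% additive at 600 L/ha, went onto one-leaf-stage weeds grown from seed in sandy loam under greenhouse conditions.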

[5] = test system: Digitaria sanguinalis (DIGSA); assay: Herbicidal post-emergence action, section B (Table B12); settings: Digitaria sanguinalis, post-emergence, 504 h; application rate 1280 g/ha; visual rating about 3 weeks after treatment vs untreated controls; read-out: post-emergence activity against DIGSA in %
Method: as §2

[6] = test system: Echinochloa crus-galli (ECHCG); assay: Herbicidal post-emergence action, section B (Table B3); settings: rated visually after about 3 weeks
Method: as §2

[7] = test system: Stellaria media (STEME); assay: Herbicidal pre-emergence action, section A (Table A9); settings: application rate 320 g/ha
Outline: as §1

[8] = test system: Amaranthus retroflexus (AMARE); assay: Herbicidal pre-emergence action, section A (Table A11); settings: application rate 320 g/ha
Outline: as §1

[9] = test system: Amaranthus retroflexus (AMARE); assay: Herbicidal post-emergence action, section B (Table B11); settings: visual rating about 3 weeks after treatment vs untreated controls
Outline: as §3

[10] = test system: Digitaria sanguinalis (DIGSA); assay: Herbicidal pre-emergence action, section A (Table A12)
Outline: as §1

[11] = test system: Setaria viridis (SETVI); assay: Herbicidal post-emergence action, section B (Table B8); settings: Setaria viridis, post-emergence, 504 h; application rate 320 g/ha; visual rating about 3 weeks after treatment vs untreated controls; read-out: post-emergence activity against SETVI in %
Method: as §2

[12] = test system: Lolium rigidum (LOLRI); assay: Herbicidal pre-emergence action, section A (Table A5); settings: application rate 320 g/ha, visual grading after ca. 3 weeks vs untreated controls
Outline: as §1

[13] = test system: Veronica persica (VERPE); assay: Herbicidal post-emergence action, section B (Table B10); settings: Veronica persica, post-emergence, 504 h; application rate 320 g/ha; visual rating about 3 weeks after treatment vs untreated controls; read-out: post-emergence activity against VERPE in %
Outline: as §3

[14] = test system: Poa annua (POAAN); assay: Herbicidal post-emergence action, section B (Table B7); settings: Poa annua, post-emergence, 504 h; application rate 1280 g/ha; visual rating about 3 weeks after treatment vs untreated controls; read-out: post-emergence activity against POAAN in %
Outline: as §3

[15] = test system: Veronica persica (VERPE); assay: Herbicidal pre-emergence action, section A (Table A10)
Outline: as §1

[16] = test system: Poa annua (POAAN); assay: Herbicidal pre-emergence action, section A (Table A7); settings: application rate 320 g/ha, visual grading after ca. 3 weeks vs untreated controls
Outline: as §1

[17] = test system: Setaria viridis (SETVI); assay: Herbicidal pre-emergence action, section A (Table A8); settings: application rate 320 g/ha
Outline: as §1

[18] = test system: Lolium rigidum (LOLRI); assay: Herbicidal post-emergence action, section B (Table B5); settings: application rate 1280 g/ha, visual rating about 3 weeks after treatment vs untreated controls
Method: as §2

[19] = test system: Echinochloa crus-galli (ECHCG); assay: Herbicidal pre-emergence action, section A (Table A3); settings: application rate 320 g/ha, visual grading after ca. 3 weeks vs untreated controls
Outline: as §1

[20] = test system: Alopecurus myosuroides (ALOMY); assay: Herbicidal pre-emergence action, section A (Table A2); settings: application rate 1280 g/ha; visual grading after ca. 3 weeks vs untreated controls
From the text: Seeds of mono- and dicotyledonous weed plants were sown in plastic pots (double sowings with one species of mono- and one species of dicotyledonous weed plants per pot), in sandy loam, and covered with soil. The compounds according to the invention, formulated in the form of wettable powders (WP) or as emulsifiable concentrates (EC), were applied to the surface of the covering soil as aqueous suspension or emulsion, with the addition of 0.5% of an additive, at an application rate of 600 l of water per hectare (converted). Following treatment, the pots were placed in a greenhouse and kept under optimum growth conditions for the test plants. The visual grading of the damage to the test plants was carried out after ca. 3 weeks in comparison to untreated controls (herbicidal effect in percent (%): 100% effect=plants have died off, 0% effect=as control plants).

Cc1cc2c(nc1-c1ccccc1Cl)N(S(C)(=O)=O)CS2 [Example I-142, 5-(2-chlorophenyl)-6-methyl-3-(methylsulfonyl)-2,3-dihydro[1,3]thiazolo[4,5-b]pyridine]
pest or weed control at 1280 g/ha ([1]; Tripleurospermum inodorum, pre-emergence, 504 h, read-out: pre-emergence activity against MATIN in %): 90% | pest or weed control at 320 g/ha ([2]; Bassia scoparia, pre-emergence, 504 h, read-out: pre-emergence activity against KCHSC in %): 90% | pest or weed control at 1280 g/ha [3]: 90% | pest or weed control at 1280 g/ha ([4]; Stellaria media, post-emergence, 504 h, application rate 1280 g/ha, read-out: post-emergence activity against STEME in %): 90% | pest or weed control at 1280 g/ha [5]: 90% | pest or weed control at 320 g/ha ([6]; Echinochloa crus-galli, 504 h, application rate 320 g/ha, read-out: post-emergence activity against ECHCG in %): 90% | pest or weed control at 320 g/ha ([7]; Stellaria media, 504 h, read-out: pre-emergence activity against STEME in %): 90% | pest or weed control at 320 g/ha ([8]; Amaranthus retroflexus, 504 h, read-out: pre-emergence activity against AMARE in %): 90% | pest or weed control at 320 g/ha ([9]; Amaranthus retroflexus, post-emergence, 504 h, application rate 320 g/ha, read-out: post-emergence activity against AMARE in %): 90% | pest or weed control at 1280 g/ha ([10]; Digitaria sanguinalis, 504 h, application rate 1280 g/ha, read-out: pre-emergence activity against DIGSA in %): 100% | pest or weed control at 320 g/ha [11]: 90% | pest or weed control at 320 g/ha ([12]; Lolium rigidum, pre-emergence, 504 h, read-out: pre-emergence activity against LOLRI in %): 100% | pest or weed control at 320 g/ha [13]: 90% | pest or weed control at 1280 g/ha [14]: 90% | pest or weed control at 320 g/ha ([15]; Veronica persica, 504 h, application rate 320 g/ha, read-out: pre-emergence activity against VERPE in %): 90% | pest or weed control at 320 g/ha ([16]; Poa annua, pre-emergence, 504 h, read-out: pre-emergence activity against POAAN in %): 100% | pest or weed control at 320 g/ha ([17]; Setaria viridis, 504 h, read-out: pre-emergence activity against SETVI in %): 100% | pest or weed control at 1280 g/ha ([18]; Lolium rigidum, post-emergence, 504 h, read-out: post-emergence activity against LOLRI in %): 90% | pest or weed control at 320 g/ha ([19]; Echinochloa crus-galli, pre-emergence, 504 h, read-out: pre-emergence activity against ECHCG in %): 100%

Cc1cc2c(nc1-c1cccc(F)c1F)N(C(=O)C13CCCC1C(Cl)=NO3)CS2 (stereo not shown) [Example I-156]
pre-emergence activity against MATIN in % [1]: 90% | pre-emergence activity against KCHSC in % [2]: 90% | post-emergence activity against STEME in % ([4]; application rate 320 g/ha): 90% | post-emergence activity against ECHCG in % ([6]; application rate 1280 g/ha): 90% | pre-emergence activity against STEME in % [7]: 90% | pre-emergence activity against AMARE in % [8]: 90% | post-emergence activity against AMARE in % ([9]; application rate 1280 g/ha): 90% | pre-emergence activity against DIGSA in % ([10]; application rate 320 g/ha): 90% | pre-emergence activity against LOLRI in % [12]: 90% | pre-emergence activity against VERPE in % ([15]; application rate 1280 g/ha): 90% | pre-emergence activity against POAAN in % [16]: 100% | pre-emergence activity against SETVI in % [17]: 100% | post-emergence activity against LOLRI in % [18]: 90% | pre-emergence activity against ECHCG in % [19]: 90% | pre-emergence activity against ALOMY in % [20]: 90%
